Test results published in ChEMBL document CHEMBL3137440, “DNDi T. cruzi fenarimol series dataset from which preclinical candidate EPL-BS0967 was identified (see also related datasets: CHEMBL3137386 and CHEMBL2448688)”.
≈ marks a conversion by molar mass, not a printed value. Each block holds one compound with its values, some of them ahead of it.

How the values were obtained:
[1] = DNDI: Lipophilicity (gLogD) at pH 3; details: buffer
in vitro [2] = details: human, microsomes
[3] = DNDI: Cytotoxicity against L-6 rat myoblasts from skeletal musclE; details: L6 rat skeletal muscle myoblasts, IC50
Trypanosoma cruzi [4] = test: (§1) DNDI: Chagas in Vitro; format: functional, Tulahuen C4 (LacZ); details: Trypanosoma cruzi, Tulahuen C4 (LacZ)
[5] = DNDI: Lipophilicity (gLogD) at pH 7.4; details: buffer
[6] = DNDI: Solubility in 0.01M HCl at pH 2 determined by nephelometry
in vitro [7] = details: human, microsomes; remark: listed apart in the source
[8] = DNDI: Solubility in phosphate buffer at pH 6.5 determined by nephelometry
Trypanosoma cruzi [9] = test: as §1; format: functional, organism-based, Tulahuen C4 (LacZ); details: Trypanosoma cruzi, Tulahuen C4 (LacZ)
in vitro [10] = details: human, microsomes; remark: listed apart in the source
Cytochrome P450 3A4 = Cytochrome P450 3A4 (Homo sapiens, UniProt P08684)
Sequence of Cytochrome P450 3A4 (P08684 whole entry): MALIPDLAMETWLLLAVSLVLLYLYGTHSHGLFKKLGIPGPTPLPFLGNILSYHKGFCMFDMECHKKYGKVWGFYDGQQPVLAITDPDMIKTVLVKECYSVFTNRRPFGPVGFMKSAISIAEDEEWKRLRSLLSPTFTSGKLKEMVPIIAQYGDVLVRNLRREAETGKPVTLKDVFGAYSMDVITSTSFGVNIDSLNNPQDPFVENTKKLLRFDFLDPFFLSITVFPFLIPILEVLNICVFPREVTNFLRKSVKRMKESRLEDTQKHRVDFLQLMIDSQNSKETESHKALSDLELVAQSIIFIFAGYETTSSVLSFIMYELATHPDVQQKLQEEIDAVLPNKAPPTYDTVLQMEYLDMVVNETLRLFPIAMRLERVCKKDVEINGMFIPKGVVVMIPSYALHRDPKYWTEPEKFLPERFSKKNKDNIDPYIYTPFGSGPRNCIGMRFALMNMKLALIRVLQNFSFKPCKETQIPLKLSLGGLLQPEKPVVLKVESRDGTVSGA

Compound: CCC(C(C)=O)N1CCC(N(c2ccc(C(F)(F)F)cc2)c2cccnc2)CC1 (stereo unspecified)
hepatic extraction ratio (in vitro [10]; EH): 0.9 | IC50 (Cytochrome P450 3A4): 10 µM | chromatographic logD ([1]; pH 3, logD): 1.6 | half-life (in vitro [2]; t (1 / 2)): 11.1 min | IC50 [3]: 25 µM | IC90 (Trypanosoma cruzi [4]): 20 nM | chromatographic logD ([5]; pH 7.4, logD): 4.6 | solubility kinetic [6]: > 100 µg/mL | microsomal CLint (in vitro [7]; CLint): 156 µL/min/mg | solubility kinetic [8]: 12.5 µg/mL (≈ 30.8 µM) | IC50 (Trypanosoma cruzi [9]): 8 nM

Compound: CC(=O)C(C)N1CCC(N(c2ccc(C(F)(F)F)cc2)c2cccnc2)CC1 (stereo unspecified)
hepatic extraction ratio (in vitro [10]; EH): 0.82 | IC50 (Cytochrome P450 3A4): 5 µM | chromatographic logD ([1]; pH 3, logD): 1.3 | half-life (in vitro [2]; t (1 / 2)): 21.5 min | IC50 [3]: 69 µM | IC90 (Trypanosoma cruzi [4]): 31 nM | chromatographic logD ([5]; pH 7.4, logD): 4.2 | solubility kinetic [6]: > 100 µg/mL | microsomal CLint (in vitro [7]; CLint): 80.7 µL/min/mg | solubility kinetic [8]: 6.3 µg/mL (≈ 16.1 µM) | IC50 (Trypanosoma cruzi [9]): 15 nM

Compound: CC(C)(O)CN1CCC(N(c2ccc(C#N)cc2)c2cccnc2)CC1
chromatographic logD ([1]; pH 3, logD): 0.7 | half-life (in vitro [2]; t (1 / 2)): 142 min | IC50 [3]: > 100 µM | IC90 (Trypanosoma cruzi [4]): 71 nM | chromatographic logD ([5]; pH 7.4, logD): 2.2 | solubility kinetic [6]: > 100 µg/mL | microsomal CLint (in vitro [7]; CLint): 12.2 µL/min/mg | solubility kinetic [8]: > 100 µg/mL | IC50 (Trypanosoma cruzi [9]): 27 nM

Compound: CCC(C(C)O)N1CCC(N(c2ccc(C(F)(F)F)cc2)c2cccnc2)CC1 (stereo unspecified)
hepatic extraction ratio (in vitro [10]; EH): 0.73 | IC50 (Cytochrome P450 3A4): 17 µM | chromatographic logD ([1]; pH 3, logD): 1.6 | half-life (in vitro [2]; t (1 / 2)): 35.8 min | IC50 [3]: 49.6 µM | IC90 (Trypanosoma cruzi [4]): > 100 nM | chromatographic logD ([5]; pH 7.4, logD): 4.3 | solubility kinetic [6]: > 100 µg/mL | microsomal CLint (in vitro [7]; CLint): 48.4 µL/min/mg | solubility kinetic [8]: 25 µg/mL (≈ 61.4 µM) | IC50 (Trypanosoma cruzi [9]): 61 nM

Compound: CC(C)C(O)CN1CCC(N(c2ccc(C(F)(F)F)cc2)c2cccnc2)CC1 (stereo unspecified)
hepatic extraction ratio (in vitro [10]; EH): 0.76 | IC50 (Cytochrome P450 3A4): > 20 µM | chromatographic logD ([1]; pH 3, logD): 1.6 | half-life (in vitro [2]; t (1 / 2)): 29.8 min | IC50 [3]: 51.5 µM | IC90 (Trypanosoma cruzi [4]): > 10000 nM | chromatographic logD ([5]; pH 7.4, logD): 3.9 | solubility kinetic [6]: > 100 µg/mL | microsomal CLint (in vitro [7]; CLint): 58.2 µL/min/mg | solubility kinetic [8]: 25 µg/mL (≈ 61.4 µM) | IC50 (Trypanosoma cruzi [9]): 36 nM

More lines, main results first:

chromatographic logD ([1]; pH 3): 3.5 | half-life (in vitro [2]): 8.8 min | IC90 (Trypanosoma cruzi [4]): 23 nM | chromatographic logD ([5]; pH 7.4): 4.4 | solubility kinetic [6]: > 100 µg/mL | microsomal CLint (in vitro [7]): 196 µL/min/mg | solubility kinetic [8]: 1.6 µg/mL (≈ 4.01 µM) | IC50 (Trypanosoma cruzi [9]): 17 nM
Compound: FC(F)(F)c1ccc(N(c2cccnc2)C2CCN(c3ncccn3)CC2)cc1
IC50 [3]: 53.9 µM

hepatic extraction ratio (in vitro [10]): 0.8 | IC50 (Cytochrome P450 3A4): 4.3 µM | chromatographic logD ([1]; pH 3): 4.2 | half-life (in vitro [2]): 23.5 min | IC90 (Trypanosoma cruzi [4]): 3 nM | chromatographic logD ([5]; pH 7.4): 4.4 | solubility kinetic [6]: 6.3 µg/mL (≈ 16.1 µM) | microsomal CLint (in vitro [7]): 73.7 µL/min/mg | solubility kinetic [8]: < 1.6 µg/mL | IC50 (Trypanosoma cruzi [9]): 1.8 nM
Compound: N#Cc1ccc(N(c2cccnc2)C2CCN(c3ccc(F)c(F)c3)CC2)cc1
IC50 [3]: > 100 µM

hepatic extraction ratio (in vitro [10]): 0.94 | IC50 (Cytochrome P450 3A4): 7 µM | chromatographic logD ([1]; pH 3): 4.4 | half-life (in vitro [2]): 6.7 min | IC90 (Trypanosoma cruzi [4]): 31 nM | chromatographic logD ([5]; pH 7.4): 4.7 | solubility kinetic [6]: 25 µg/mL (≈ 49.5 µM) | microsomal CLint (in vitro [7]): 258 µL/min/mg | solubility kinetic [8]: < 1.6 µg/mL | IC50 (Trypanosoma cruzi [9]): 15 nM
Compound: CN(C)S(=O)(=O)c1cccc(N2CCC(N(c3ccc(C(F)(F)F)cc3)c3cccnc3)CC2)c1
IC50 [3]: 10.4 µM

hepatic extraction ratio (in vitro [10]): 0.97 | IC50 (Cytochrome P450 3A4): 6 µM | chromatographic logD ([1]; pH 3): 3.6 | half-life (in vitro [2]): 3.4 min | IC90 (Trypanosoma cruzi [4]): 11 nM | chromatographic logD ([5]; pH 7.4): 3.7 | solubility kinetic [6]: 50 µg/mL (≈ 108 µM) | microsomal CLint (in vitro [7]): 504 µL/min/mg | solubility kinetic [8]: < 1.6 µg/mL | IC50 (Trypanosoma cruzi [9]): 6 nM
Compound: CN(C)S(=O)(=O)c1cccc(N2CCC(N(c3ccc(C#N)cc3)c3cccnc3)CC2)c1

hepatic extraction ratio (in vitro [10]): 0.75 | IC50 (Cytochrome P450 3A4): > 20 µM | chromatographic logD ([1]; pH 3): 5.2 | half-life (in vitro [2]): 32.8 min | IC90 (Trypanosoma cruzi [4]): 11 nM | chromatographic logD ([5]; pH 7.4): > 5.3 | solubility kinetic [6]: 12.5 µg/mL (≈ 25.5 µM) | microsomal CLint (in vitro [7]): 52.9 µL/min/mg | solubility kinetic [8]: < 1.6 µg/mL | IC50 (Trypanosoma cruzi [9]): 7 nM
Compound: N#Cc1cc(C(F)(F)F)ccc1N1CCC(N(c2ccc(C(F)(F)F)cc2)c2cccnc2)CC1
IC50 [3]: 24.3 µM

hepatic extraction ratio (in vitro [10]): 0.85 | IC50 (Cytochrome P450 3A4): > 20 µM | chromatographic logD ([1]; pH 3): 4.7 | half-life (in vitro [2]): 16.8 min | IC90 (Trypanosoma cruzi [4]): 10.5 nM | chromatographic logD ([5]; pH 7.4): > 5.3 | solubility kinetic [6]: 25 µg/mL (≈ 54.7 µM) | microsomal CLint (in vitro [7]): 103 µL/min/mg | solubility kinetic [8]: < 1.6 µg/mL | IC50 (Trypanosoma cruzi [9]): 5 nM
Compound: N#Cc1cc(C(F)(F)F)ccc1N1CCC(N(c2ccc(Cl)cc2)c2cccnc2)CC1
IC50 [3]: 17.7 µM

hepatic extraction ratio (in vitro [10]): 0.87 | IC50 (Cytochrome P450 3A4): > 20 µM | chromatographic logD ([1]; pH 3): 4.6 | half-life (in vitro [2]): 14.6 min | IC90 (Trypanosoma cruzi [4]): 13.5 nM | chromatographic logD ([5]; pH 7.4): 4.8 | solubility kinetic [6]: 50 µg/mL (≈ 113 µM) | microsomal CLint (in vitro [7]): 118 µL/min/mg | solubility kinetic [8]: < 1.6 µg/mL | IC50 (Trypanosoma cruzi [9]): 7 nM
Compound: Cn1nc(C2CC2)cc1N1CCC(N(c2ccc(C(F)(F)F)cc2)c2cccnc2)CC1
IC50 [3]: 30 µM

chromatographic logD ([1]; pH 3): > 5.3 | half-life (in vitro [2]): 25.7 min | IC90 (Trypanosoma cruzi [4]): 11 nM | chromatographic logD ([5]; pH 7.4): 5.2 | solubility kinetic [6]: < 1.6 µg/mL | microsomal CLint (in vitro [7]): 67.5 µL/min/mg | solubility kinetic [8]: 3.1 µg/mL (≈ 6.65 µM) | IC50 (Trypanosoma cruzi [9]): 7 nM
Compound: FC(F)(F)c1ccc(N2CCC(N(c3ccc(C(F)(F)F)cc3)c3cncnc3)CC2)cc1
IC50 [3]: 76.5 µM
